{"source": "patent US10874644B2", "about": "“Therapeutic approaches for treating Alzheimer disease and related disorders through a modulation of synapse function” (Pharnext, priority 2008, dated 2020)", "molecules": {"B1": {"name": "BDNF: Brain-derived neurotrophic factor, used as a positive (neuroprotective) control (protein, UniProt P23560 19-247, looked up)", "Neurotrophic factor BDNF …": "APMKEANIRGQGGLAYPGVRTHGTLESVNGPKAGSRGLTSLADTFEHVIEELLDEDQKVRPNEENNKDADLYTSRVMLSSQVPLEPPLLFLLEEYKNYLDAANMSMRVRRHSDPARRGELSVCDSISEWVTAADKKTAVDMSGGTVTVLEKVPVSKGQLKQYFYETKCNPMGYTKEGCRGIDKRHWNSQCRTTQSYVRALTMDSKKRIGWRFIRIDTSCVCTLTIKRGR"}}, "key": {"[1]": {"tested_on": "rat primary cortical neurons", "assay": "Neurite outgrowth (neurites length) in beta-amyloid Aβ25-35 intoxicated rat primary cortical neuron culture", "format": "cell-based", "conditions": "Aβ25-35 20 μM for 2 days, drug added 1 hour before, Fig. 1A, 1B", "excerpt": "Viable cells are counted in a Neubauer cytometer using the trypan blue exclusion test."}, "[2]": {"tested_on": "rat primary cortical neurons", "assay": "LDH release in human Aβ1-42 toxicity on rat primary cortical cells", "format": "cell-based", "conditions": "1 h pre-treatment, Aβ1-42 10 μM for 24 h", "description": "Primary rat cortical neurons are cultured as described previously. […] The control medium was prepared in the same conditions.\nCortical neurons were intoxicated for 24 hours. Three separate cultures were performed per condition, 6 wells per condition.\nThis colorimetric assay for the quantification of cell toxicity is based on the measurement of lactate dehydrogenase (LDH) activity released from the cytosol of dying cells into the supernatant."}}, "data": [{"molecule": "CC(=O)NCCCS(=O)(=O)O", "note": "[Acamprosate]", "values": [{"measurement": "Prevention of Aβ25-35 intoxication (neurite outgrowth, neurites length)", "setting": "[1]", "value": "significantly prevented"}]}, {"molecule": "NS(=O)(=O)Cc1noc2ccccc12", "note": "[Zonisamide]", "values": [{"measurement": "Prevention of Aβ25-35 intoxication (neurite outgrowth, neurites length)", "setting": "[1]", "value": "significantly prevented"}, {"measurement": "Prevention of Aβ1-42 intoxication, change of LDH release", "setting": "[2]; Fig. 3B, 3C", "value": "−75", "unit": "%"}]}, {"molecule": "B1", "values": [{"measurement": "Prevention of Aβ25-35 intoxication (neurite outgrowth, neurites length)", "setting": "[1]", "value": "efficiently prevented"}, {"measurement": "Protection from Aβ1-42 amyloid injury (LDH release)", "setting": "[2]; Fig. 3A", "value": "significantly protected"}]}]}
